Test results reported in US9028856B2, “Synergistic pesticide compositions” (priority 2008, dated 2015).

How the values were obtained:
[1] = test system: Musca domestica, susceptible strain WHO(N); experiment: Topical insecticide application to houseflies; format: in vivo; details: 0.5 μl per fly, % a.i. conc. in acetone, Table 95
Protocol: Male Musca domestica, susceptible strain WHO(N), or other strains were used.
The flies were anaesthetized with CO2, and ten individuals were positioned (on their back) on a filter paper which was on the top of a carbon dioxide emitting device. […]
Afterwards the insects were transferred into a beaker closed by a gauze lid with a water saturated cotton pad on the top.
At regular intervals, mortality was recorded (cumulatively).

[2] = format: physicochemical; details: classified from Log P
Text: As used herein, a “partition coefficient” is defined as the ratio of concentrations of an un-ionized compound between solutions of water and octanol. To measure the partition coefficient of ionizable solutes, the pH of the aqueous phase is adjusted such that the predominant form of the compound is un-ionized. The logarithm of the ratio of the concentrations of the un-ionized solute in the solvents is referred to herein as log P or log K ow.
As noted herein, the octanol-water partition coefficient may be used to identify the cuticular penetration of a particular active ingredient. One factor in the relative speed through which any insecticide acts is the insecticide's ability to cross the insect cuticle. A determining factor for cuticle penetration is Log K ow, also known as Log P. Log K ow (Log P) is the octanol-water partition coefficient for a neutral molecule. Log P is used hereinfurther, but, as noted above, the term is synonymous with Log K ow. As previously noted, the cuticular penetration of any particular active ingredient as against a plant cuticle is not indicative of that same active ingredient's ability to penetrate an insect cuticle.
The cuticular penetration of a compound is classified as “INTERMEDIATE” when the Log P value is between about 2.0 and about 4.0.

Aedes aegypti mosquito = experiment: USDA Petri Dish Method, 3 min exposure to treated glazed tile; format: in vivo; details: Aedes aegypti, glazed tile, 3 min exposure
Summary of the method: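 USDA Petri Dish screen: groups of twenty female Aedes aegypti (4-6 days old) held 3 minutes on dried acetone-based treatments (with/without adjuvant), then transferred to untreated card. Replicated three or more times; knockdown followed over time, mortality recorded 24 hours post-exposure with sucrose-soaked cotton available.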

[3] = octanol-water partition coefficient (Log K ow), Table 1; cited from earlier work
[4] = test system: Argentine ant, Linepithema humile; experiment: Knockdown/mortality of ant workers under continuous exposure on treated glazed tile
Summary of the method: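 0.5% AI imidacloprid in acetone, alone or with 0.1, 1.0 or 5.0% additive (benzenepropanoic acid, oleic acid, methyl oleate, methyl linoleate, methyl palmitate or BHA), 1 ml dried overnight on glazed tile (~161 cm^2). Ten workers confined under continuous exposure, water from 3 h; knockdown/mortality scored at intervals and 24 h; ≥3 replicates.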

[5] = test system: Culex quinquefasciatus mosquito; experiment: USDA Petri Dish Method, 3 min exposure to treated glazed tile (twenty 4-6 day old females); format: in vivo; details: fipronil 0.01% AI with or without adjuvant
Protocol: MATERIALS AND METHODS: Solutions of resmethrin at 1 and 0.5% AI were prepared with and without adjuvant in acetone. […] USDA Petri Dish Method was used as initial screening protocol. Twenty, 4-6 day old female Culex quinquefasciatus mosquitoes were exposed to each treatment for 3 minutes and then moved to a clean untreated white paper index card. Treatments were replicated a minimum of three times. Mosquito knockdown was evaluated at 3 minute intervals for the first 15 minutes and then at 5 minute intervals for the remainder of an hour. A small cotton ball soaked in sucrose solution was added on the screen top of the petri-dish as a drinking source after the 2 hour evaluation. Mortality was evaluated at 24 hours after exposure.
(§1) Treatments were allowed to dry overnight. USDA Petri Dish Method was used as initial screening protocol. Twenty, 4-6 day old female Culex mosquitoes were exposed to each treatment for 3 minutes and then moved to a clean untreated white paper index card. Treatments were replicated a minimum of three times. Mosquito knockdown was evaluated at various intervals through 3 hours after exposure. A small cotton ball soaked in sucrose solution was added on the screen top of the petri-dish as a drinking source. Mortality was evaluated at 24 hours after exposure.
as §1, with “female Culex quinquefasciatus mosquitoes were” for “female Culex mosquitoes were”, “intervals through 2 hours after” for “intervals through 3 hours after”, “solution was then added on” for “solution was added on”
as §1, with “Culex quinquefasciatus” for “Culex”, “hourly intervals.” for “intervals through 3 hours after exposure.”, “source after 2 hours.” for “source.”

[6] = test system: Odorous House ant, Tapinoma sessile; experiment: Knockdown/mortality of ant workers under continuous exposure on treated glazed tile; format: in vivo; details: fipronil 0.001% (FIG. 45); ethiprole 0.01% (FIG. 53); with or without adjuvant
Text: Actual coverage was about 5″×5″ (or 161 cm2) for easy handling. Treatments were allowed to dry overnight. […] Treatments were replicated minimum three times.
(§2) Treatments were allowed to dry overnight. […] Treatments were replicated minimum three times.
(§3) Treatments were allowed to dry overnight. […] Treatments were replicated a minimum of three times.
Treatments were allowed to dry overnight. […] Treatments were replicated minimum of three times. […] The results are shown in FIG. 84 (No adjuvant alone treatment was performed).

[7] = test system: Red Imported Fire ant (RIFA), Solenopsis invicta; experiment: as above; format: in vivo; details: fipronil 0.01% AI with or without adjuvant
Text: as §2, §3

[8] = test system: susceptible/normal German cockroach (Monheim strain), Blattella germanica; experiment: Knockdown/mortality of male cockroaches under continuous exposure on treated glazed tile; format: in vivo; details: fipronil 0.001% (FIG. 48); ethiprole 0.01% (FIG. 55); with or without adjuvant
Protocol: Treatments were allowed to dry overnight. […] Treatments were replicated a minimum of three times. […]
Treatments were allowed to dry overnight. […] Treatments were replicated a minimum of three times. Cockroach knockdown/mortality was evaluated at 5 minute intervals for the first 60 minutes after exposure and then at 2, 18 and 24 hours.

[9] = test system: Musca domestica, susceptible strain WHO(N); experiment: Contact efficacy against houseflies on filter papers in glass dishes; format: in vivo; details: % a.i. conc. in acetone on filter papers, Table 97
Protocol: Male Musca domestica, susceptible strain WHO(N), were used.
A solution of the active ingredient in acetone was prepared. A concentration row was made. After evaporation of the acetone (30′), the dishes were closed by a glass lid and transferred into the test room. One day later twenty flies, anaesthetized with CO2, are counted into each dish. At regular intervals, knock down was recorded (cumulatively). Each test consisted of one replicate. […]

CC1(C)[C@H](C(=O)O[C@H](C#N)c2cccc(Oc3ccccc3)c2)[C@@H]1C=C(Br)Br [0.0000256% DTM]
% Mortality after ([1]; 15′): 10% | % Mortality after ([1]; 30′): 20% | % Mortality after ([1]; 1 h): 30% | % Mortality after ([1]; 2 h): 20% | % Mortality after ([1]; 4 h): 20% | % Mortality after ([1]; 1 d): 60%

CC(C)=CC1C(C(=O)OCc2coc(Cc3ccccc3)c2)C1(C)C (centres unmarked) [resmethrin]
Likelihood of Direct Insect Cuticular Penetration [2]: Fast (classified as “FAST” when it has a Log P value of about >4.0) | toxicity / efficacy of the substance alone (summary in words) (Aedes aegypti mosquito): did not provide mosquito knockdown | Log P [3]: 5.4

N#Cc1nn(-c2c(Cl)cc(C(F)(F)F)cc2Cl)c(N)c1[S+]([O-])C(F)(F)F (single isomer, unassigned) [fipronil, reference compound]
Likelihood of Direct Insect Cuticular Penetration [2]: Fast (classified as “FAST” when it has a Log P value of about >4.0) | time at which 100% mortality was seen ([4]; fipronil 0.001% with or without adjuvant (FIG. 43)): around 25 hours | mortality at 24 hours (FIG. 44) [5]: around 50% | time at which 100% mortality was observed [6]: 25 h | time to a relatively high percentage of mortality (around 80%) [7]: around 20 hours | mortality at 25 hours [8]: around 40% | Log P [3]: 4.0

O=C(NC(=O)c1ccccc1Cl)Nc1ccc(OC(F)(F)F)cc1 [triflumuron]
Likelihood of Direct Insect Cuticular Penetration [2]: Fast (classified as “FAST” when it has a Log P value of about >4.0) | Log P [3]: 4.9

O=C(NC(=O)c1c(F)cccc1F)Nc1cc(Cl)c(OC(F)(F)C(F)F)c(Cl)c1 [hexaflumuron]
Likelihood of Direct Insect Cuticular Penetration [2]: Fast (classified as “FAST” when it has a Log P value of about >4.0) | Log P [3]: 5.6

CN/C(=N\[N+](=O)[O-])NCc1cnc(Cl)s1 [clothianidin]
Likelihood of Direct Insect Cuticular Penetration [2]: Slow (classified as “SLOW” when the compound has a Log P value of about <2.0) | Log P [3]: 0.7

CC1(C)C(C=C(Br)Br)C1C(=O)OC(C#N)c1cccc(Oc2ccccc2)c1 (centres unmarked) [0.000128% DTM]
% Mortality after ([1]; 15′): 20% | % Mortality after ([1]; 30′): 50% | % Mortality after ([1]; 1 h): 70% | % Mortality after ([1]; 2 h): 70% | % Mortality after ([1]; 4 h): 80% | % Mortality after ([1]; 1 d): 50%

Cc1ccc(O)c(-n2nc3ccccc3n2)c1 [0.5% Compound B]
% Mortality after ([1]; 15′): 0% | % Mortality after ([1]; 30′): 0% | % Mortality after ([1]; 1 h): 0% | % Mortality after ([1]; 2 h): 0% | % Mortality after ([1]; 4 h): 0% | % Mortality after ([1]; 1 d): 60% | % knock down after ([9]; 15′): 0% | % knock down after ([9]; 30′): 0% | % knock down after ([9]; 1 h): 0% | % knock down after ([9]; 1.5 h): 0% | % knock down after ([9]; 2 h): 0% | % knock down after ([9]; 3 h): 0% | % knock down after ([9]; 4 h): 0% | % knock down after ([9]; 6 h): 0% | % knock down after ([9]; 1 d): 70%

CC1(C)[C@H](C(=O)O[C@H](C#N)c2cccc(Oc3ccccc3)c2)[C@@H]1C=C(Br)Br [0.00064% DTM]
% Mortality after ([1]; 15′): 100% | % Mortality after ([1]; 30′): 100% | % Mortality after ([1]; 1 h): 100% | % Mortality after ([1]; 2 h): 100% | % Mortality after ([1]; 4 h): 100% | % Mortality after ([1]; 1 d): 80%

spiromesifen
Likelihood of Direct Insect Cuticular Penetration [2]: Fast (classified as “FAST” when it has a Log P value of about >4.0) | Log P [3]: 4.6

CC1(C)C(C=C(Cl)Cl)C1C(=O)OC(C#N)c1ccc(F)c(Oc2ccccc2)c1 (stereo not drawn) [β-cyfluthrin, reference compound]
Likelihood of Direct Insect Cuticular Penetration [2]: Fast (classified as “FAST” when it has a Log P value of about >4.0) | toxicity / efficacy of the substance alone (summary in words) ([4]; Argentine ant, treated glazed tile): extremely effective at killing the ants | toxicity / efficacy of the substance alone (summary in words) (Aedes aegypti mosquito): 100% knockdown, or nearly 100% knockdown even in the absence of the adjuvant | Log P [3]: 5.9

CCOC(=O)CC(SP(=S)(OC)OC)C(=O)OCC (centres unmarked) [malathion]
Likelihood of Direct Insect Cuticular Penetration [2]: Intermediate (classified as “INTERMEDIATE” when the Log P value is between about 2.0 and about 4.0) | Log P [3]: 2.7

CC(COc1ccc(Oc2ccccc2)cc1)Oc1ccccn1 (centres unmarked) [pyriproxifen]
Likelihood of Direct Insect Cuticular Penetration [2]: Fast (classified as “FAST” when it has a Log P value of about >4.0) | Log P [3]: 5.4

N#C/N=C1\SCCN1Cc1ccc(Cl)nc1 [thiacloprid]
Likelihood of Direct Insect Cuticular Penetration [2]: Slow (classified as “SLOW” when the compound has a Log P value of about <2.0) | Log P [3]: 1.3

CNC(=O)Oc1cccc2ccccc12 [carbaryl]
Likelihood of Direct Insect Cuticular Penetration [2]: Intermediate (classified as “INTERMEDIATE” when the Log P value is between about 2.0 and about 4.0) | Log P [3]: 2.8

CC1(C)CNC(=NN=C(/C=C/c2ccc(C(F)(F)F)cc2)/C=C/c2ccc(C(F)(F)F)cc2)NC1 [hydramethylnon]
Likelihood of Direct Insect Cuticular Penetration [2]: Intermediate (classified as “INTERMEDIATE” when the Log P value is between about 2.0 and about 4.0) | Log P [3]: 2.3
